Reference: ChEMBL document CHEMBL2396615 (Bioorg Med Chem Lett, 2013)

What was measured:
[1] = molecular target: T1, Bifunctional epoxide hydrolase 2 (Homo sapiens, UniProt P34913); experiment: Inhibition of human recombinant soluble epoxide hydrolase using (cyano(6-methoxy-naphthelen-2-yl)methyl trans-[(3-phenyl-oxiran-2-yl)methyl] carbonate) as substrate preincubated for 5 mins prior to substrate addition by fluorescence assay
T1 sequence (P34913 whole entry): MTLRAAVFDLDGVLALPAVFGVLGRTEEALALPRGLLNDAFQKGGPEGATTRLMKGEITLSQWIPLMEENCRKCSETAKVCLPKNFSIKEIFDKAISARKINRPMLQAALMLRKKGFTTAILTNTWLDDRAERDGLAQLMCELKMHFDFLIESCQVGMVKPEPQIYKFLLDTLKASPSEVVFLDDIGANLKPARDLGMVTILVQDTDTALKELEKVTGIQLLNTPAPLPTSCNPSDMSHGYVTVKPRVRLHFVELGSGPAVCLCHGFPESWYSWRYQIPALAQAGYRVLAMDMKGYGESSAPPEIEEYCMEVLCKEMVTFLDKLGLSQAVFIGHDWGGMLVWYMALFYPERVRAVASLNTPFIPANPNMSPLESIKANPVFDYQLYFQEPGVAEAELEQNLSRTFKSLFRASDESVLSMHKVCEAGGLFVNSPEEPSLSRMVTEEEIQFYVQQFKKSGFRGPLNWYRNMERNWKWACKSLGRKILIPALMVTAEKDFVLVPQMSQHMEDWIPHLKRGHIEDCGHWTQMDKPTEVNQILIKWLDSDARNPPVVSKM

[2] = molecular target: T1, Bifunctional epoxide hydrolase 2; experiment: Competitive inhibition of human recombinant soluble epoxide hydrolase using [3H]-tDPPO as substrate

Compound | IC50 [1] | Ki [2]
[O-][S+](Cc1ccccc1)Cc1ccccc1 | 70000 nM | –
CCCCCCCCC(=O)CCCCCCCC | > 100000 nM | –
CCCCCCCCS(=O)(=O)CCCCCCCC | > 100000 nM | –
CCCCCCCC[S+]([O-])Cc1ccccc1 (stereo unspecified) | 6800 nM | –
CCCCCCCC[S+]([O-])CCCCCCCC | 1350 nM | –
O=C(Cc1ccccc1)Nc1ccccc1 | 11000 nM | –
O=C(Nc1ccccc1)Nc1ccccc1 | 400 nM | –
CCCCCCCCSCCCCCCCC [DIOCTYLSULFANE] | > 100000 nM | –
O=c1c2ccccc2[se]n1-c1ccccc1 [EBSELEN] | 2200 nM | –
C[C@]12CC[C@@H]3c4ccc(O)cc4C[C@@H](CCCCCCCCC[S+]([O-])CCCC(F)(F)C(F)(F)F)[C@H]3[C@@H]1CC[C@@H]2O (stereo partly specified) [FULVESTRANT] | 6 nM | 26 nM
